According to patent US12643912B2, “Macrocyclic compounds, a process for their preparation and pharmaceutical compositions containing them” (LES LABORATOIRES SERVIER, priority 2020, dated 2026):
Like-named read-outs stand apart in the source and are kept apart here.

Legend:
[1] = tested on: Nrf2 (Keap1-NRF2 nuclear translocation); test: U2OS translocation assay (PathHunter U2OS Keap1-NRF2 Nuclear Translocation Cell Line); assay type: cell-based
Procedure, shortened: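 PathHunter U2OS line expressing Nrf2-enzyme-donor fusion and nuclear acceptor enzyme, 7 500 cells/well in Opti-MEM, 1% FBS. Compounds incubated 3 h at 37° C. Luminescence after 60 min with detection reagent, normalized between 1% DMSO and 10 μM andrographolide.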

Keap1 (A321-C624) (h) = biological target: T1, Keap1 (A321-C624) (h) (Homo sapiens, UniProt Q14145); test: Surface Plasmon Resonance binding assay to Kelch domain of KEAP1; settings: Biacore T200, 25° C., immobilized His-Thromb-KEAP1(A321-C624), single cycle kinetics, KD=kd/ka from 1:1 fit; read-out: Keap1 (A321-C624) (h) direct/SPR (KD)
T1 construct: His-Thromb-KEAP1(A321-C624) acquired from Novalix (batch PU-P01) was immobilized covalently by amine coupling; His tag (N); thrombin cleavage site (Thromb) (N); purchased Novalix batch PU-P01
T1 sequence (Q14145 321-624): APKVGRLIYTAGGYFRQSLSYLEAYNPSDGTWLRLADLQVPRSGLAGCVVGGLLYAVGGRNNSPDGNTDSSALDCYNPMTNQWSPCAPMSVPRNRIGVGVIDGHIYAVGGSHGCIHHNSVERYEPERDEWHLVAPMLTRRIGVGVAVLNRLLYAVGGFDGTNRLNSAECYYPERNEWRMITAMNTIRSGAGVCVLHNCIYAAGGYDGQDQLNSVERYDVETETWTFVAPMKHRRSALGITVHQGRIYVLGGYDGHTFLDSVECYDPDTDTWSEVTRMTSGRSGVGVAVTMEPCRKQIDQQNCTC
Procedure, shortened: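 His-Thromb-KEAP1(A321-C624) amine-coupled on CM5 chip to 1250 RU; amine blank reference. Run at 25° C in HEPES pH 7.4, 150 mM NaCl, 3 mM EDTA, 1 mM TCEP, 0.05% P20, 5% DMSO; 180 s association, 720 s dissociation, 50 μL/min. KD = kd/ka from 1:1 kinetic fit, double-referenced, DMSO solvent-corrected.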

[2] = Homo sapiens, U2OS, 3 h, read-out: CELLULAR U2OS EC50 (nM), U2OS Keap1-NRF2 nuclear translocation cells, 3 h incubation, luminescence, normalized between 1% DMSO and 10 μM andrographolide
[3] = read-out: CELLULAR U2OS EC50, U2OS Keap1-NRF2 nuclear translocation cells, 3 h incubation, luminescence, normalized between 1% DMSO and 10 μM andrographolide

Cc1ccc2cc1CN1Cc3cc(ccc3OS1(=O)=O)OCCCCn1cc(nn1)C(=O)NC2CC(=O)O (single isomer, unassigned) [Example 72a, [4-Methyl-10,25,25-trioxo-19,24-dioxa-25λ^6-thia-1,9,12,13,14-pentaazapentacyclo[18.5.3.1^3,70.1^11,140.0^23,27]triaconta-3(30),4,6,11(29),12,20,22,27-octaen-8-yl]acetic acid]
EC50 [1, 2]: > 3160 nM | Kd (Keap1 (A321-C624) (h)): 23.6 nM

Cc1ccc2cc1CN1Cc3cc(ccc3OS1(=O)=O)OCc1ccccc1OCCCn1nnc3c(C)c(ccc31)C2CC(=O)O (single isomer, unassigned) [Example 57b, [4,38-Dimethyl-34,34-dioxo-20,28,33-trioxa-34λ^6-thia-1,14,15,16-tetraazaheptacyclo[27.5.3.1^3,70.1^9,130.0^12,160.0^21,260.0^32,36]nonatriaconta-3(39),4,6,9(38),10,12,14,21,23,25,29,31,36-tridecaen-8-yl]acetic acid]
EC50 [1, 3]: 2820 nM | Kd (Keap1 (A321-C624) (h)): 498 nM

Cc1ccc2cc1CN1Cc3cc(ccc3N(C)S1(=O)=O)OCCCCn1nnc3c(C)c(ccc31)C2CC(=O)O (single isomer, unassigned) [Example 39a, [4,26,31-Trimethyl-27,27-dioxo-21-oxa-27λ^6-thia-1,14,15,16,26-pentaazahexacyclo[20.5.3.1^3,70.1^9,130.0^12,160.0^25,29]dotriaconta-3(32),4,6,9(31),10,12,14,22,24,29-decaen-8-yl]acetic acid]
EC50 [1, 3]: 14.2 nM | Kd (Keap1 (A321-C624) (h)): 0.137 nM

Cc1c2ccc3c1nnn3CCCCOc1ccc3c(c1)CN([C@H](C)c1cc(ccc1Cl)[C@@H]2CC(=O)O)S(=O)(=O)O3 [Example 64a, [(2R,8S)-4-chloro-2,31-dimethyl-27,27-dioxo-21,26-dioxa-27λ^6-thia-1,14,15,16-tetraazahexacyclo[20.5.3.1^3,70.1^9,130.0^12,160.0^25,29]dotriaconta-3(32),4,6,9(31),10,12,14,22,24,29-decaen-8-yl]acetic acid]
EC50 [1, 2]: 24 nM | Kd (Keap1 (A321-C624) (h)): 0.195 nM

COc1cc2cc(c1)C(CC(=O)O)c1ccc3c(nnn3CCCCOc3ccc4c(c3)CN(C2)S(=O)(=O)O4)c1C (single isomer, unassigned) [Example 8b, [5-Methoxy-31-methyl-27,27-dioxo-21,26-dioxa-27λ^6-thia-1,14,15,16-tetraazahexacyclo[20.5.3.1^3,70.1^9,130.0^12,160.0^25,29]dotriaconta-3(32),4,6,9(31),10,12,14,22,24,29-decaen-8-yl]acetic acid]
EC50 [1, 3]: 516 nM | Kd (Keap1 (A321-C624) (h)): 12.4 nM

Cc1ccc2cc1[C@@H](C)N1Cc3cc(ccc3OS1(=O)=O)OCCC1(CCOCC1)Cn1nnc3c(C)c(ccc31)C2CC(=O)O (stereo partly drawn) [Example 68, [(2R)-2,4,31-Trimethyl-27,27-dioxo-27λ^6-spiro[21,26-dioxa-27-thia-1,14,15,16-tetraazahexacyclo[20.5.3.1^3,70.1^9,130.0^12,160.0^25,29]dotriaconta-3(32),4,6,9(31),10,12,14,22,24,29-decaene-18,4′-oxan]-8-yl]acetic acid]
EC50 [1, 2]: 38.3 nM | Kd (Keap1 (A321-C624) (h)): 8.96 nM

COc1cc2c3cc1OCCCCn1nnc4c(C)c(ccc41)C(CC(=O)O)c1ccc(C)c(c1)CN(C3)S(=O)(=O)O2 (single isomer, unassigned) [Example 25a, [23-Methoxy-4,31-dimethyl-27,27-dioxo-21,26-dioxa-27λ^6-thia-1,14,15,16-tetraazahexacyclo[20.5.3.1^3,70.1^9,130.0^12,160.0^25,29]dotriaconta-3(32),4,6,9(31),10,12,14,22,24,29-decaen-8-yl]acetic acid]
EC50 [1, 3]: 14 nM | Kd (Keap1 (A321-C624) (h)): 0.562 nM

Cc1ccc2cc1CN1Cc3cc(c(Cl)cc3OS1(=O)=O)OCCCCn1nnc3c(C)c(cc(Cl)c31)[C@@H]2CC(=O)O [Example 52, [(8R)-11,23-Dichloro-4,31-dimethyl-27,27-dioxo-21,26-dioxa-27λ^6-thia-1,14,15,16-tetraazahexacyclo[20.5.3.1^3,70.1^9,130.0^12,160.0^25,29]dotriaconta-3(32),4,6,9(31),10,12,14,22,24,29-decaen-8-yl]acetic acid]
EC50 [1, 2]: 180 nM | Kd (Keap1 (A321-C624) (h)): 8.86 nM

Cc1ccc2cc1CN1Cc3cc(ccc3OS1(=O)=O)OCCCCn1cc(nn1)C(=O)NC2CC(=O)O (single isomer, unassigned) [Example 72b, [4-Methyl-10,25,25-trioxo-19,24-dioxa-25λ^6-thia-1,9,12,13,14-pentaazapentacyclo[18.5.3.1^3,70.1^11,140.0^23,27]triaconta-3(30),4,6,11(29),12,20,22,27-octaen-8-yl]acetic acid]
EC50 [1, 3]: > 3160 nM | Kd (Keap1 (A321-C624) (h)): 730 nM

COc1ccc2cc1[C@@H](C)N1Cc3cc(ccc3OS1(=O)=O)OCCCCCCn1nnc3c(C)c(ccc31)[C@H]2CC(=O)O [Example 40a, [(2R,8S)-4-methoxy-2,33-dimethyl-29,29-dioxo-23,28-dioxa-29λ^6-thia-1,14,15,16-tetraazahexacyclo[22.5.3.1^3,70.1^9,130.0^12,160.0^27,31]tetratriaconta-3(34),4,6,9(33),10,12,14,24,26,31-decaen-8-yl]acetic acid]
EC50 [1, 2]: 9.72 nM | Kd (Keap1 (A321-C624) (h)): 5.51 nM

Cc1ccc2cc1CN1Cc3cc(cc(C)c3OS1(=O)=O)OCCCCn1nnc3c(C)c(ccc31)C2CC(=O)O (single isomer, unassigned) [Example 15a, [4,24,31-Trimethyl-27,27-dioxo-21,26-dioxa-27λ^6-thia-1,14,15,16-tetraazahexacyclo[20.5.3.1^3,70.1^9,130.0^12,160.0^25,29]dotriaconta-3(32),4,6,9(31),10,12,14,22,24,29-decaen-8-yl]acetic acid]
EC50 [1, 3]: 57.9 nM | Kd (Keap1 (A321-C624) (h)): 1.92 nM

COCCC1CCOc2ccc3c(c2)CN([C@H](C)c2cc(ccc2C)[C@H](CC(=O)O)c2ccc4c(nnn4C1)c2C)S(=O)(=O)O3 (single isomer, unassigned) [Example 24b]
EC50 [1, 3]: 2.45 nM | Kd (Keap1 (A321-C624) (h)): 1.23 nM

Cc1ccc2cc1CN1Cc3cc(c(Cl)cc3OS1(=O)=O)OCCCCn1nnc3c(C)c(ccc31)C2CC(=O)O (single isomer, unassigned) [Example 22b, [23-Chloro-4,31-dimethyl-27,27-dioxo-21,26-dioxa-27λ^6-thia-1,14,15,16-tetraazahexacyclo[20.5.3.1^3,70.1^9,130.0^12,160.0^25,29]dotriaconta-3(32),4,6,9(31),10,12,14,22,24,29-decaen-8-yl]acetic acid]
EC50 [1, 3]: 111 nM | Kd (Keap1 (A321-C624) (h)): 2.11 nM

Cc1ccc2cc1CN1Cc3cc(c(F)cc3OS1(=O)=O)OCCCCn1nnc3c(C)c(ccc31)C2CC(=O)O (single isomer, unassigned) [Example 32b, [23-Fluoro-4,31-dimethyl-27,27-dioxo-21,26-dioxa-27λ^6-thia-1,14,15,16-tetraazahexacyclo[20.5.3.1^3,70.1^9,130.0^12,160.0^25,29]dotriaconta-3(32),4,6,9(31),10,12,14,22,24,29-decaen-8-yl]acetic acid]
EC50 [1, 3]: 150 nM | Kd (Keap1 (A321-C624) (h)): 2.02 nM

Cc1ccc2cc1CN1Cc3cc(ccc3OS1(=O)=O)N(C)C(=O)CCCn1nnc3c(C)c(ccc31)C2CC(=O)O (stereo not drawn) [Example 43, [4,21,31-Trimethyl-20,27,27-trioxo-26-oxa-27λ^6-thia-1,14,15,16,21-pentaazahexacyclo[20.5.3.1^3,70.1^9,130.0^12,160.0^25,29]dotriaconta-3(32),4,6,9(31),10,12,14,22,24,29-decaen-8-yl]acetic acid]
EC50 [1, 2]: 570 nM | Kd (Keap1 (A321-C624) (h)): 2.92 nM
